Test results reported in US8338337B2, “Substituted pyridines having a herbicidal effect” (BASF SE, priority 2008, dated 2012).

How the values were obtained:
ABUTH = assay: greenhouse post-emergence herbicidal test; assay type: in vivo, Abutilon theophrasti; conditions: 3.0 kg/ha, scale 0 to 100
From the text: The seeds of the test plants were sown separately for each species. For the post-emergence treatment, the test plants were first grown to a height of 3 to 15 cm, depending on the plant habit, and then treated with the active compounds which had been suspended or emulsified in water. For this purpose, the test plants were either sown directly and grown in the same containers, or they were first grown separately as seedlings and transplanted into the test containers a few days prior to treatment. Depending on the species, the plants were kept at 10-25° C. or 20-35° C. The test period extended over 2 to 4 weeks. During this time, the plants were tended, and their response to the individual treatments was evaluated. Evaluation was carried out using a scale from 0 to 100. 100 means no emergence of the plants, or complete destruction of at least the aerial moieties, and 0 means no damage, or normal course of growth. A good herbicidal activity is given at values of at least 70 and a very good herbicidal activity is given at values of at least 85. [table]

AMARE = assay: greenhouse pre-emergence herbicidal test; assay type: in vivo, Amaranthus retroflexus; conditions: 0.5 kg/ha, scale 0 to 100
From the text: The seeds of the test plants were sown separately for each species. For the pre-emergence treatment, the active compounds, which had been suspended or emulsified in water, were applied directly after sowing by means of finely distributing nozzles. The containers were irrigated gently to promote germination and growth and subsequently covered with transparent plastic hoods until the plants had rooted. This cover caused uniform germination of the test plants, unless this has been impaired by the active compounds. Depending on the species, the plants were kept at 10-25° C. or 20-35° C. The test period extended over 2 to 4 weeks. During this time, the plants were tended, and their response to the individual treatments was evaluated. Evaluation was carried out using a scale from 0 to 100. 100 means no emergence of the plants, or complete destruction of at least the aerial moieties, and 0 means no damage, or normal course of growth. A good herbicidal activity is given at values of at least 70 and a very good herbicidal activity is given at values of at least 85. [table]

Row | SMILES | herbicidal activity against ABUTH (ABUTH) | herbicidal activity against AMARE (AMARE)
1 | O=c1oc2ccc(O)nc2c(O)c1-c1ccccc1C(F)(F)F [I-23] | good (A good herbicidal activity is given at values of at least 70) | –
2 | O=c1oc2cccnc2c(O)c1-c1cc(C(F)(F)F)ccc1C(F)(F)F [I-35] | – | very good (a very good herbicidal activity is given at values of at least 85)
